Laboratory results as given in ChEMBL document CHEMBL4311999, “3-Hydrazinoisatin-based benzenesulfonamides as novel carbonic anhydrase inhibitors endowed with anticancer activity: Synthesis, in vitro biological evaluation and in silico insights” (Eur J Med Chem, 2019).
Blank lines part the entries; values can stand above or below the molecule they belong to.

Columns and labels:
Carbonic anhydrase 9 [1] = biological target: T1, Carbonic anhydrase 9 (Homo sapiens, UniProt Q16790); test: Inhibition of recombinant human carbonic anhydrase 9 preincubated for 15 mins by phenol red dye based stopped flow CO2 hydration assay
Carbonic anhydrase 2 = Carbonic anhydrase 2 (Homo sapiens, UniProt P00918); test: Inhibition of recombinant human carbonic anhydrase 2 preincubated for 15 mins by phenol red dye based stopped flow CO2 hydration assay
Carbonic anhydrase 12 = Carbonic anhydrase 12 (Homo sapiens, UniProt O43570); test: Inhibition of recombinant human carbonic anhydrase 12 preincubated for 15 mins by phenol red dye based stopped flow CO2 hydration assay
Carbonic anhydrase 1 = Carbonic anhydrase 1 (Homo sapiens, UniProt P00915); test: Inhibition of recombinant human carbonic anhydrase 1 preincubated for 15 mins by phenol red dye based stopped flow CO2 hydration assay
Carbonic anhydrase 9 [2] = biological target: T1, Carbonic anhydrase 9; conditions: at 0.01 µM
Description: Inhibition of recombinant human carbonic anhydrase 9 at 0.01 uM preincubated for 15 mins by phenol red dye based stopped flow CO2 hydration assay (Rvb = 0%)

Carbonic anhydrase 9 [3] = biological target: T1, Carbonic anhydrase 9; conditions: at 1 nM
Carbonic anhydrase 9 [4] = biological target: T1, Carbonic anhydrase 9; conditions: at 0.1 µM
Description: Inhibition of recombinant human carbonic anhydrase 9 at 0.1 uM preincubated for 15 mins by phenol red dye based stopped flow CO2 hydration assay (Rvb = 0%)

Carbonic anhydrase 9 [5] = biological target: T1, Carbonic anhydrase 9; conditions: at 1 µM
Description: Inhibition of recombinant human carbonic anhydrase 9 at 1 uM preincubated for 15 mins by phenol red dye based stopped flow CO2 hydration assay (Rvb = 0%)

CAKI-1 = test: Growth inhibition of human Caki1 cells at 10 uM incubated for 48 hrs by sulforhodamine B assay relative to control; assay type: functional; conditions: CAKI-1, 48 h, read-out: GI
MCF7 = test: Growth inhibition of human MCF7 cells at 10 uM incubated for 48 hrs by sulforhodamine B assay relative to control; assay type: functional; conditions: MCF7, 48 h, read-out: GI
NCI-H522 = test: Growth inhibition of human NCI-H522 cells at 10 uM incubated for 48 hrs by sulforhodamine B assay relative to control; assay type: functional; conditions: NCI-H522, 48 h, read-out: GI
A498 = test: Growth inhibition of human A498 cells at 10 uM incubated for 48 hrs by sulforhodamine B assay relative to control; assay type: functional; conditions: A498, 48 h, read-out: GI
HCT-116 = test: Growth inhibition of human HCT116 cells at 10 uM incubated for 48 hrs by sulforhodamine B assay relative to control; assay type: functional; conditions: HCT-116, 48 h, read-out: GI
IGROV-1 = test: Growth inhibition of human IGROV1 cells at 10 uM incubated for 48 hrs by sulforhodamine B assay relative to control; assay type: functional; conditions: IGROV-1, 48 h, read-out: GI
A549 = test: Growth inhibition of human A549/ATCC cells at 10 uM incubated for 48 hrs by sulforhodamine B assay relative to control; assay type: functional; conditions: A549, 48 h, read-out: GI
EKVX = test: Growth inhibition of human EKVX cells at 10 uM incubated for 48 hrs by sulforhodamine B assay relative to control; assay type: functional; conditions: read-out: GI
UACC-62 = test: Growth inhibition of human UACC62 cells at 10 uM incubated for 48 hrs by sulforhodamine B assay relative to control; assay type: functional; conditions: UACC-62, 48 h, read-out: GI
SW-620 = test: Growth inhibition of human SW620 cells at 10 uM incubated for 48 hrs by sulforhodamine B assay relative to control; assay type: functional; conditions: SW-620, 48 h, read-out: GI
ACHN = test: Growth inhibition of human ACHN cells at 10 uM incubated for 48 hrs by sulforhodamine B assay relative to control; assay type: functional; conditions: read-out: GI
786-0 = test: Growth inhibition of human 786-0 cells at 10 uM incubated for 48 hrs by sulforhodamine B assay relative to control; assay type: functional; conditions: 786-0, 48 h, read-out: GI
KM12 = test: Growth inhibition of human KM12 cells at 10 uM incubated for 48 hrs by sulforhodamine B assay relative to control; assay type: functional; conditions: KM12, 48 h, read-out: GI
NCI-H226 = test: Growth inhibition of human NCI-H226 cells at 10 uM incubated for 48 hrs by sulforhodamine B assay relative to control; assay type: functional; conditions: NCI-H226, 48 h, read-out: GI
K562 = test: Growth inhibition of human K562 cells at 10 uM incubated for 48 hrs by sulforhodamine B assay relative to control; assay type: functional; conditions: K562, 48 h, read-out: GI
SK-OV-3 = test: Growth inhibition of human SKOV3 cells at 10 uM incubated for 48 hrs by sulforhodamine B assay relative to control; assay type: functional; conditions: SK-OV-3, 48 h, read-out: GI
OVCAR-4 = test: Growth inhibition of human OVCAR4 cells at 10 uM incubated for 48 hrs by sulforhodamine B assay relative to control; assay type: functional; conditions: OVCAR-4, 48 h, read-out: GI
DU-145 = test: Growth inhibition of human DU145 cells at 10 uM incubated for 48 hrs by sulforhodamine B assay relative to control; assay type: functional; conditions: DU-145, 48 h, read-out: GI
UO-31 = test: Growth inhibition of human UO31 cells at 10 uM incubated for 48 hrs by sulforhodamine B assay relative to control; assay type: functional; conditions: UO-31, 48 h, read-out: GI
TK-10 = test: Growth inhibition of human TK10 cells at 10 uM incubated for 48 hrs by sulforhodamine B assay relative to control; assay type: functional; conditions: TK-10, 48 h, read-out: GI
MOLT-4 = test: Growth inhibition of human MOLT4 cells at 10 uM incubated for 48 hrs by sulforhodamine B assay relative to control; assay type: functional; conditions: MOLT-4, 48 h, read-out: GI
RPMI-8226 = test: Growth inhibition of human RPMI8226 cells at 10 uM incubated for 48 hrs by sulforhodamine B assay relative to control; assay type: functional; conditions: RPMI-8226, 48 h, read-out: GI
BT-549 = test: Growth inhibition of human BT549 cells at 10 uM incubated for 48 hrs by sulforhodamine B assay relative to control; assay type: functional; conditions: BT-549, 48 h, read-out: GI
NCI-H460 = test: Growth inhibition of human NCI-H460 cells at 10 uM incubated for 48 hrs by sulforhodamine B assay relative to control; assay type: functional; conditions: NCI-H460, 48 h, read-out: GI
OVCAR-5 = test: Growth inhibition of human OVCAR5 cells at 10 uM incubated for 48 hrs by sulforhodamine B assay relative to control; assay type: functional; conditions: OVCAR-5, 48 h, read-out: GI
T47D = test: Growth inhibition of human T47D cells at 10 uM incubated for 48 hrs by sulforhodamine B assay relative to control; assay type: functional; conditions: read-out: GI
HCT-15 = test: Growth inhibition of human HCT15 cells at 10 uM incubated for 48 hrs by sulforhodamine B assay relative to control; assay type: functional; conditions: HCT-15, 48 h, read-out: GI
OVCAR-8 = test: Growth inhibition of human OVCAR8 cells at 10 uM incubated for 48 hrs by sulforhodamine B assay relative to control; assay type: functional; conditions: OVCAR-8, 48 h, read-out: GI
MDA-MB-231 = test: Growth inhibition of human MDA-MB-231 cells at 10 uM incubated for 48 hrs by sulforhodamine B assay relative to control; assay type: functional; conditions: MDA-MB-231, 48 h, read-out: GI
SNB-75 = test: Growth inhibition of human SNB75 cells at 10 uM incubated for 48 hrs by sulforhodamine B assay relative to control; assay type: functional; conditions: SNB-75, 48 h, read-out: GI
MDA-MB-468 = test: Growth inhibition of human MDA-MB-468 cells at 10 uM incubated for 48 hrs by sulforhodamine B assay relative to control; assay type: functional; conditions: MDA-MB-468, 48 h, read-out: GI
CCRF-CEM = test: Growth inhibition of human CCRF-CEM cells at 10 uM incubated for 48 hrs by sulforhodamine B assay relative to control; assay type: functional; conditions: read-out: GI
NCI/ADR-RES = test: Growth inhibition of human NCI/ADR-RES cells at 10 uM incubated for 48 hrs by sulforhodamine B assay relative to control; assay type: functional; conditions: read-out: GI
RXF 393 = test: Growth inhibition of human RXF393 cells at 10 uM incubated for 48 hrs by sulforhodamine B assay relative to control; assay type: functional; conditions: RXF 393, 48 h, read-out: GI
SF-539 = test: Growth inhibition of human SF539 cells at 10 uM incubated for 48 hrs by sulforhodamine B assay relative to control; assay type: functional; conditions: SF-539, 48 h, read-out: GI
HOP-62 = test: Growth inhibition of human HOP62 cells at 10 uM incubated for 48 hrs by sulforhodamine B assay relative to control; assay type: functional; conditions: HOP-62, 48 h, read-out: GI
PC-3 = test: Growth inhibition of human PC3 cells at 10 uM incubated for 48 hrs by sulforhodamine B assay relative to control; assay type: functional; conditions: PC-3, 48 h, read-out: GI

Sequence of Carbonic anhydrase 12 (O43570 whole entry): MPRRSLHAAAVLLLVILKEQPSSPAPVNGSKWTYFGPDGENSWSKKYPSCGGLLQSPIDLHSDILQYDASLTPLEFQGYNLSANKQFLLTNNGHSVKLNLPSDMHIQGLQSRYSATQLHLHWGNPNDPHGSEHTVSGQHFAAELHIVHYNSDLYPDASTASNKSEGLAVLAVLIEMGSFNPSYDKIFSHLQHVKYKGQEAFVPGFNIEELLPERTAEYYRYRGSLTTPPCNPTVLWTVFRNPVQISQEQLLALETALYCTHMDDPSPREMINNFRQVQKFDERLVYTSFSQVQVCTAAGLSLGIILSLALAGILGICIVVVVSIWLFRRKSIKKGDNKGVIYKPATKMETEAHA
Sequence of Carbonic anhydrase 1 (P00915 whole entry): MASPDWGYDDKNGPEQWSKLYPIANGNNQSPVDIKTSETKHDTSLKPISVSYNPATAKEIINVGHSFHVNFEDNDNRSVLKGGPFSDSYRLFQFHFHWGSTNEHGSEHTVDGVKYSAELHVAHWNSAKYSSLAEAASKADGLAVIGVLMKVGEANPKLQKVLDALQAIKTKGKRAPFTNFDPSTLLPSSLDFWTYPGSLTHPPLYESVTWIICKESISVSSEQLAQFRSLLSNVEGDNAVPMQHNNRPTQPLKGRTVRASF

SMILES: NS(=O)(=O)c1ccc(N/N=C2\C(=O)Nc3ccc(Br)cc32)cc1
Ki (Carbonic anhydrase 2): 95.6 nM | Ki (Carbonic anhydrase 9 [1]): 24.8 nM | Ki (Carbonic anhydrase 12): 65.9 nM | Ki (Carbonic anhydrase 1): 3710 nM

SMILES: CN1C(=O)/C(=N\Nc2ccc(S(N)(=O)=O)cc2)c2ccccc21
inhibition (Carbonic anhydrase 9 [2]): 51% | Ki (Carbonic anhydrase 9 [1]): 9.4 nM | inhibition (Carbonic anhydrase 9 [3]): 17% | inhibition (Carbonic anhydrase 9 [4]): 75% | inhibition (Carbonic anhydrase 9 [5]): 81%

SMILES: NS(=O)(=O)c1ccc(N/N=C2\C(=O)Nc3ccccc32)cc1
Ki (Carbonic anhydrase 2): 63.3 nM | Ki (Carbonic anhydrase 9 [1]): 15.5 nM | Ki (Carbonic anhydrase 12): 30.1 nM | Ki (Carbonic anhydrase 1): 467 nM

SMILES: CCCN1C(=O)/C(=N\Nc2ccc(S(N)(=O)=O)cc2)c2cc(Br)ccc21
inhibition of growth at 10 µM (BT-549): 10% | inhibition of growth at 10 µM (NCI-H460): 22% | Ki (Carbonic anhydrase 9 [1]): 55.8 nM | inhibition of growth at 10 µM (OVCAR-5): 11% | inhibition of growth at 10 µM (T47D): 19% | inhibition of growth at 10 µM (MCF7): 20% | inhibition of growth at 10 µM (NCI-H522): 31% | inhibition of growth at 10 µM (HCT-15): 12% | inhibition of growth at 10 µM (HCT-116): 30% | inhibition of growth at 10 µM (OVCAR-8): 24% | inhibition of growth at 10 µM (A549): 19% | inhibition of growth at 10 µM (MDA-MB-231): 10% | inhibition of growth at 10 µM (SNB-75): 27% | inhibition of growth at 10 µM (MDA-MB-468): 14% | inhibition of growth at 10 µM (EKVX): 11% | inhibition of growth at 10 µM (UACC-62): 30% | inhibition of growth at 10 µM (CCRF-CEM): 14% | inhibition of growth at 10 µM (NCI/ADR-RES): 16% | inhibition of growth at 10 µM (RXF 393): 23% | inhibition of growth at 10 µM (ACHN): 23% | inhibition of growth at 10 µM (NCI-H226): 18% | inhibition of growth at 10 µM (SF-539): 13% | inhibition of growth at 10 µM (K562): 21% | inhibition of growth at 10 µM (HOP-62): 13% | inhibition of growth at 10 µM (UO-31): 18% | inhibition of growth at 10 µM (PC-3): 24% | inhibition of growth at 10 µM (TK-10): 10% | inhibition of growth at 10 µM (MOLT-4): 12% | inhibition of growth at 10 µM (RPMI-8226): 26%

More lines, in order of falling Ki (Carbonic anhydrase 9 [1]), values ahead:

inhibition (Carbonic anhydrase 9 [2]): 42% | Ki (Carbonic anhydrase 9 [1]): 38.8 nM | inhibition (Carbonic anhydrase 9 [3]): 11% | inhibition (Carbonic anhydrase 9 [4]): 66% | inhibition (Carbonic anhydrase 9 [5]): 76%
SMILES: CCOC(=O)CN1C(=O)/C(=N\Nc2ccc(S(N)(=O)=O)cc2)c2cc(Cl)ccc21
inhibition of growth at 10 µM (CAKI-1): 24% | inhibition of growth at 10 µM (MCF7): 21% | inhibition of growth at 10 µM (NCI-H522): 18% | inhibition of growth at 10 µM (A498): 10% | inhibition of growth at 10 µM (HCT-116): 10% | inhibition of growth at 10 µM (IGROV-1): 13% | inhibition of growth at 10 µM (A549): 17% | inhibition of growth at 10 µM (EKVX): 16% | inhibition of growth at 10 µM (UACC-62): 24% | inhibition of growth at 10 µM (SW-620): 10% | inhibition of growth at 10 µM (ACHN): 30% | inhibition of growth at 10 µM (786-0): 10% | inhibition of growth at 10 µM (KM12): 12% | inhibition of growth at 10 µM (NCI-H226): 18% | inhibition of growth at 10 µM (K562): 15% | inhibition of growth at 10 µM (SK-OV-3): 10% | inhibition of growth at 10 µM (OVCAR-4): 10% | inhibition of growth at 10 µM (DU-145): 10% | inhibition of growth at 10 µM (UO-31): 18% | inhibition of growth at 10 µM (TK-10): 29% | inhibition of growth at 10 µM (MOLT-4): 21% | inhibition of growth at 10 µM (RPMI-8226): 11%

Ki (Carbonic anhydrase 9 [1]): 25.8 nM
SMILES: CCN1C(=O)/C(=N\Nc2ccc(S(N)(=O)=O)cc2)c2ccccc21

Ki (Carbonic anhydrase 2): 35.9 nM | Ki (Carbonic anhydrase 9 [1]): 8.3 nM | Ki (Carbonic anhydrase 12): 11.9 nM | Ki (Carbonic anhydrase 1): 1810 nM
SMILES: NS(=O)(=O)c1ccc(N/N=C2\C(=O)Nc3ccc(Cl)cc32)cc1 [GW280670X]
